Measured values: patent US7608604B2, “Antiparasitic agents” (Pfizer Limited, priority 2007, dated 2009)

System: Haemonchus contortus L3
Assay: Haemonchus contortus L3 (HcL3) in vitro test
Format: cell-based
Conditions: minimum effective dose
Protocol: The Haemonchus contortus L3 (HcL3) test is used to measure the biological activities of the compounds claimed. The assay involves in vitro testing against H. contortus conducted according to the following general procedure.
HcL3 larvae were collected from infected sheep and, after cleaning, stored in water at 12° C. for up to one month. Viable infective larvae were exsheathed using 10% hypochlorite in Glucose Tyrodes balanced salt solution containing antibiotics and resuspended in basal medium (20 g/l bacto-tryptone, 5 g/l yeast extract, 57 g/l glucose, 0.8 g/l di-Potassium hydrogen orthophosphate, 0.8 g/l potassium dihydrogen orthophosphate and […] Hepes with antibiotics). 95 μl worm suspension was added to each well of a 96 well plate.
Test compounds were dissolved in dimethylsulfoxide to give a working stock solution of 20 mg/ml. The stock concentration was diluted 1:10 in Basal media to give 2.0 mg/ml (10% DMSO). 5 μl of the stock compound solution was added to the worm suspension to give a final concentration of 100 μg/ml. Plates were sealed with pressure sensitive film and incubated at 37° C. Observations were made 2 hrs, 24 hrs, 48 hrs, 72 hrs and 4 days post-treatment using an inverted microscope. Activity was recorded if a significant proportion of the worms were dead or adversely affected by the compound when compared to the control well containing 1% DMSO. Compounds were initially tested at 100 μg/ml, wherefrom relevant dose responses (100, 30, 10, 3, 1, 0.3, 0.1 μg/ml) were conducted in duplicate experiments to generate n=2. Data was recorded as minimum effective dose.

[1] = table of Examples 13a-42, 13a/b, 27a/b, 29a/b, 33a/b tested as mixtures of regioisomers

Compound | H.c. (L3) MED [1] | further results
CC(C#N)(COc1ccc(F)cc1C#N)NC(=O)c1ccc(S(F)(F)(F)(F)F)cc1 (centres unmarked) [Example 27a, N-[1-Cyano-2-(2-cyano-4-fluorophenoxy)-1-methylethyl]-4-(pentafluorothio)benzamide] | 3 µg/mL | 
CC(C#N)(COc1ccc(F)c(C#N)c1)NC(=O)c1ccc(S(F)(F)(F)(F)F)cc1 (centres unmarked) [Example 27b, N-[1-Cyano-2-(3-cyano-4-fluorophenoxy)-1-methylethyl]-4-(pentafluorothio)benzamide] | 3 µg/mL | 
CC(C#N)(COc1ccc(Cl)cc1F)NC(=O)c1ccc(S(F)(F)(F)(F)F)cc1 (centres unmarked) [Example 28, N-[2-(4-Chloro-2-fluorophenoxy)-1-cyano-1-methylethyl]-4-(pentafluorothio)benzamide] | 3 µg/mL | 
CC(C#N)(COc1ccc(C#N)cc1F)NC(=O)c1ccc(S(F)(F)(F)(F)F)cc1 (centres unmarked) [Example 29a, N-[1-Cyano-2-(4-cyano-2-fluorophenoxy)-1-methylethyl]-4-(pentafluorothio)benzamide] | 10 µg/mL | 
CC(C#N)(COc1cc(C#N)ccc1F)NC(=O)c1ccc(S(F)(F)(F)(F)F)cc1 (centres unmarked) [Example 29b, N-[1-Cyano-2-(5-cyano-2-fluorophenoxy)-1-methylethyl]-4-(pentafluorothio)benzamide] | 10 µg/mL | 
CC(C#N)(COc1ccc(C(F)(F)F)cc1F)NC(=O)c1ccc(S(F)(F)(F)(F)F)cc1 (centres unmarked) [Example 30, N-{1-Cyano-2-[2-fluoro-4-(trifluoromethyl)phenoxy]-1-methylethyl}-4-(pentafluorothio)benzamide] | 10 µg/mL | 
CC(C#N)(COc1cccc(Cl)c1)NC(=O)c1ccc(S(F)(F)(F)(F)F)cc1 (centres unmarked) [Example 31] | 10 µg/mL | 
CC(C#N)(COc1cc(C#N)ccc1Br)NC(=O)c1ccc(S(F)(F)(F)(F)F)cc1 (centres unmarked) [Example 32, N-[2-(2-Bromo-5-cyanophenoxy)-1-cyano-1-methylethyl]-4-(pentafluorothio)benzamide] | 3 µg/mL | 
CC(C#N)(COc1ccc(F)cc1Br)NC(=O)c1ccc(S(F)(F)(F)(F)F)cc1 (centres unmarked) [Example 33a, N-[2-(2-Bromo-4-fluorophenoxy)-1-cyano-1-methylethyl]-4-(pentafluorothio)benzamide] | 10 µg/mL | 
CC(C#N)(COc1ccc(F)c(Br)c1)NC(=O)c1ccc(S(F)(F)(F)(F)F)cc1 (centres unmarked) [Example 33b, N-[2-(3-Bromo-4-fluorophenoxy)-1-cyano-1-methylethyl]-4-(pentafluorothio)benzamide] | 10 µg/mL | 
CC(C#N)(COc1ccc(Br)cc1F)NC(=O)c1ccc(S(F)(F)(F)(F)F)cc1 (centres unmarked) [Example 34, N-[2-(4-Bromo-2-fluorophenoxy)-1-cyano-1-methylethyl]-4-(pentafluorothio)benzamide] | 10 µg/mL | 
CC(C#N)(COc1cc(Br)cc(C#N)c1)NC(=O)c1ccc(S(F)(F)(F)(F)F)cc1 (centres unmarked) [Example 35, N-[2-(3-Bromo-5-cyanophenoxy)-1-cyano-1-methylethyl]-4-(pentafluorothio)benzamide] | 3 µg/mL | 
CC(C#N)(COc1cccc(C#N)c1C(F)(F)F)NC(=O)c1ccc(S(F)(F)(F)(F)F)cc1 (centres unmarked) [Example 36, N-{1-Cyano-2-[3-cyano-2-(trifluoromethyl)phenoxy]-1-methylethyl}-4-(pentafluorothio)benzamide] | 10 µg/mL | 
CC(C#N)(COc1cccc(C#N)c1Br)NC(=O)c1ccc(S(F)(F)(F)(F)F)cc1 (centres unmarked) [Example 37, N-[2-(2-Bromo-3-cyanophenoxy)-1-cyano-1-methylethyl]-4-(pentafluorothio)benzamide] | 3 µg/mL | 
CC(C#N)(COc1cc(Cl)ccc1Cl)NC(=O)c1ccc(S(F)(F)(F)(F)F)cc1 (centres unmarked) [Example 38, N-[1-Cyano-2-(2,5-dichlorophenoxy)-1-methylethyl]-4-(pentafluorothio)benzamide] | 10 µg/mL | 
CC(C#N)(COc1cccc(F)c1Cl)NC(=O)c1ccc(S(F)(F)(F)(F)F)cc1 (centres unmarked) [Example 39, N-[2-(2-Chloro-3-fluorophenoxy)-1-cyano-1-methylethyl]-4-(pentafluorothio)benzamide] | 30 µg/mL | 
CC(C#N)(COc1cccc(Br)c1C#N)NC(=O)c1ccc(S(F)(F)(F)(F)F)cc1 (centres unmarked) [Example 40, N-[2-(3-Bromo-2-cyanophenoxy)-1-cyano-1-methylethyl]-4-(pentafluorothio)benzamide] | 10 µg/mL | 
CC(C#N)(COc1ccc(Br)cc1C#N)NC(=O)c1ccc(S(F)(F)(F)(F)F)cc1 (centres unmarked) [Example 41, N-[2-(4-Bromo-2-cyanophenoxy)-1-cyano-1-methylethyl]-4-(pentafluorothio)benzamide] | 10 µg/mL | 
CC(C#N)(COc1cccc(Cl)c1Cl)NC(=O)c1ccc(S(F)(F)(F)(F)F)cc1 (centres unmarked) [Example 42, N-[1-Cyano-2-(2,3-dichlorophenoxy)-1-methylethyl]-4-(pentafluorothio)benzamide] | 30 µg/mL | 
CC(C#N)(COc1cc(C#N)ccc1C(N)=O)NC(=O)c1ccc(S(F)(F)(F)(F)F)cc1 (centres unmarked) [Example 45, 4-Cyano-2-(2-cyano-2-{[4-(pentafluorothio)benzoyl]amino}propoxy)benzamide] |  | H.c. (L3) MED (table of Examples 45-49): 30 µg/mL
CC(C#N)(COc1cc(C#N)ccc1C#N)NC(=O)c1ccc(S(F)(F)(F)(F)F)cc1 (centres unmarked) [Example 46, N-[1-Cyano-2-(2,5-dicyanophenoxy)-1-methylethyl]-4-(pentafluorothio)benzamide] |  | H.c. (L3) MED (table of Examples 45-49): 10 µg/mL
CC(C#N)(COc1ccc(C#N)cc1C#N)NC(=O)c1ccc(S(F)(F)(F)(F)F)cc1 (centres unmarked) [Example 47, N-[1-Cyano-2-(2,4-dicyanophenoxy)-1-methylethyl]-4-(pentafluorothio)benzamide] |  | H.c. (L3) MED (table of Examples 45-49): 10 µg/mL
CC(C#N)(COc1cc(F)cc(C#N)c1)NC(=O)c1ccc(S(F)(F)(F)(F)F)cc1 (centres unmarked) [Example 48, N-[1-Cyano-2-(3-cyano-5-fluorophenoxy)-1-methylethyl]-4-(pentafluorothio)benzamide] |  | H.c. (L3) MED (table of Examples 45-49): 3 µg/mL
CC(C#N)(COc1ccc(C(N)=O)cc1Cl)NC(=O)c1ccc(S(F)(F)(F)(F)F)cc1 (centres unmarked) [Example 49] |  | H.c. (L3) MED (table of Examples 45-49): 10 µg/mL
CC(C#N)(COc1c(F)cc(C#N)cc1F)NC(=O)c1ccc(S(F)(F)(F)(F)F)cc1 (centres unmarked) [Example 51, N-[1-Cyano-2-(4-cyano-2,6-difluorophenoxy)-1-methylethyl]-4-(pentafluorothio)benzamide] |  | H.c. (L3) MED (table of Examples 51-52): 3 µg/mL
CC(C#N)(COc1cccc(Cl)c1C(F)(F)F)NC(=O)c1ccc(S(F)(F)(F)(F)F)cc1 (centres unmarked) [Example 52, N-{2-[3-Chloro-2-(trifluoromethyl)phenoxy]-1-cyano-1-methylethyl}-4-(pentafluorothio)benzamide] |  | H.c. (L3) MED (table of Examples 51-52): 10 µg/mL
N-[2-(2-Chloro-4-fluorophenoxy)-1-cyano-1-methylethyl]-4-(pentafluorothio)benzamide [Example 13a] | 1 µg/mL | 
N-[2-(3-Chloro-4-fluorophenoxy)-1-cyano-1-methylethyl]-4-(pentafluorothio)benzamide [Example 13b] | 1 µg/mL | 
N-[2-(4-Chlorophenoxy)-1-cyano-1-methylethyl]-(pentafluorothio)benzamide [Example 15] | 30 µg/mL | 
